Legend:
[1] = target: T1, His-tagged recombinant human TrkA (Homo sapiens, UniProt P04629); experiment: TrkA LanthaScreen Eu Kinase Binding Assay; settings: averaged IC50; TR-FRET binding assay, 60 min, 22° C.; read-out: TrkA Enzyme IC50
T1 construct: 6HIS tagged cytoplasmic domain from Invitrogen, Catalog No. PV3144; purchased Invitrogen PV3144
Experimental: TrkA binding activity was determined in a TrkA LanthaScreen™ Eu Kinase Binding Assay. 5 nM His-tagged recombinant human TrkA (6HIS tagged cytoplasmic domain from Invitrogen, Catalog No. PV3144) was incubated with 4 nM Alexa-Fluor® Tracer 236 (Invitrogen Cat. No. PV5592), 2 nM biotinylated anti-His (Invitrogen Cat. No. PV6090), and 2 nM europium-labeled Streptavidin (Invitrogen Cat. No. PV5899), in buffer (25 mM MOPS, pH 7.5, 5 mM MgCl2, 0.005% Triton X-100). Three fold serial dilutions of compounds of the invention in DMSO were added to a final percentage of 2% DMSO. After 60-minute incubation at 22° C., the reaction was measured using the EnVision multimode plate reader (PerkinElmer) via TR-FRET dual wavelength detection at […]. The percent of control was calculated using a ratiometric emission factor. The IC50 values were determined by fitting a four parameter model to the percent of control data.
Table A provides averaged IC50 values for compounds of the invention when tested in the assay of Example A, where A represents an averaged IC50 value <100 nM; B represents an averaged IC50 value from 100 to 1,000 nM; and C represents an averaged IC50 value from 1,000 to 10,000 nM.

BrSK1 = target: T2, BrSK1 (Homo sapiens, UniProt Q8TDC3); experiment: Off-target kinase profiling (KinaseProfiler); type: biochemical; settings: 10 μM, ATP near Km
T2 construct: purchased Millipore, Inc. (KinaseProfiler service)
Procedure, shortened: (§1)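 Broad-panel profiling at one concentration (10 μM). The ATP level was adjusted to approximate each kinase's Km. Values are POC averaged over duplicates.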

p38gamma = target: T3, p38gamma (Homo sapiens, UniProt P53778); experiment: Off-target kinase profiling (KinaseProfiler); type: biochemical; settings: 10 μM, ATP near Km
T3 construct: purchased Millipore, Inc. (KinaseProfiler service)
Procedure, shortened: as §1

ARK5 = target: T4, ARK5 (Homo sapiens, UniProt O60285); experiment: Off-target kinase profiling (KinaseProfiler); type: biochemical; settings: 10 μM, ATP near Km
T4 construct: purchased Millipore, Inc. (KinaseProfiler service)
Procedure, shortened: as §1

PKAC-alpha = target: T5, PKAC-alpha (Homo sapiens, UniProt P17612); experiment: Off-target kinase profiling (KinaseProfiler); type: biochemical; settings: 10 μM, ATP near Km
T5 construct: purchased Millipore, Inc. (KinaseProfiler service)
Procedure, shortened: as §1

EphB4 = target: T6, EphB4 (Homo sapiens, UniProt P54760); experiment: Off-target kinase profiling (KinaseProfiler); type: biochemical; settings: 10 μM, ATP near Km
T6 construct: purchased Millipore, Inc. (KinaseProfiler service)
Procedure, shortened: as §1

Plk2 = target: T7, Plk2 (Homo sapiens, UniProt Q9NYY3); experiment: Off-target kinase profiling (KinaseProfiler); type: biochemical; settings: 10 μM, ATP near Km
T7 construct: purchased Millipore, Inc. (KinaseProfiler service)
Procedure, shortened: as §1

KIT = target: T8, KIT (Homo sapiens, UniProt P10721); experiment: Off-target kinase profiling (KinaseProfiler); type: biochemical; settings: 10 μM, ATP near Km
T8 construct: purchased Millipore, Inc. (KinaseProfiler service)
Procedure, shortened: as §1

SGK2 = target: T9, SGK2 (Homo sapiens, UniProt Q9HBY8); experiment: Off-target kinase profiling (KinaseProfiler); type: biochemical; settings: 10 μM, ATP near Km
T9 construct: purchased Millipore, Inc. (KinaseProfiler service)
Procedure, shortened: as §1

PAK6 = target: T10, PAK6 (Homo sapiens, UniProt Q9NQU5); experiment: Off-target kinase profiling (KinaseProfiler); type: biochemical; settings: 10 μM, ATP near Km
T10 construct: purchased Millipore, Inc. (KinaseProfiler service)
Procedure, shortened: as §1

PAK2 = target: T11, PAK2 (Homo sapiens, UniProt Q13177); experiment: Off-target kinase profiling (KinaseProfiler); type: biochemical; settings: 10 μM, ATP near Km
T11 construct: purchased Millipore, Inc. (KinaseProfiler service)
Procedure, shortened: as §1

ErbB4 = target: T12, ErbB4 (Homo sapiens, UniProt Q15303); experiment: Off-target kinase profiling (KinaseProfiler); type: biochemical; settings: 10 μM, ATP near Km
T12 construct: purchased Millipore, Inc. (KinaseProfiler service)
Procedure, shortened: as §1

CDK2/cyclinE = target: T13, CDK2/cyclinE (Homo sapiens, UniProt P24941); experiment: Off-target kinase profiling (KinaseProfiler); type: biochemical; settings: 10 μM, ATP near Km
T13 construct: purchased Millipore, Inc. (KinaseProfiler service)
Procedure, shortened: as §1

GRK7 = target: T14, GRK7 (Homo sapiens, UniProt Q8WTQ7); experiment: Off-target kinase profiling (KinaseProfiler); type: biochemical; settings: 10 μM, ATP near Km
T14 construct: purchased Millipore, Inc. (KinaseProfiler service)
Procedure, shortened: as §1

PRK2 = target: T15, PRK2 (Homo sapiens, UniProt Q16513); experiment: Off-target kinase profiling (KinaseProfiler); type: biochemical; settings: 10 μM, ATP near Km
T15 construct: purchased Millipore, Inc. (KinaseProfiler service)
Procedure, shortened: as §1

PTK6 = target: T16, PTK6 (Homo sapiens, UniProt Q13882); experiment: Off-target kinase profiling (KinaseProfiler); type: biochemical; settings: 10 μM, ATP near Km
T16 construct: purchased Millipore, Inc. (KinaseProfiler service)
Procedure, shortened: as §1

Plk1 = target: T17, Plk1 (Homo sapiens, UniProt P53350); experiment: Off-target kinase profiling (KinaseProfiler); type: biochemical; settings: 10 μM, ATP near Km
T17 construct: purchased Millipore, Inc. (KinaseProfiler service)
Procedure, shortened: as §1

DAPK3 = target: T18, DAPK3 (Homo sapiens, UniProt O43293); experiment: Off-target kinase profiling (KinaseProfiler); type: biochemical; settings: 10 μM, ATP near Km
T18 construct: purchased Millipore, Inc. (KinaseProfiler service)
Procedure, shortened: as §1

IGF-1R = target: T19, IGF-1R (Homo sapiens, UniProt P08069); experiment: Off-target kinase profiling (KinaseProfiler); type: biochemical; settings: 10 μM, ATP near Km
T19 construct: purchased Millipore, Inc. (KinaseProfiler service)
Procedure, shortened: as §1

KDR = target: T20, KDR (Homo sapiens, UniProt P35968); experiment: Off-target kinase profiling (KinaseProfiler); type: biochemical; settings: 10 μM, ATP near Km
T20 construct: purchased Millipore, Inc. (KinaseProfiler service)
Procedure, shortened: as §1

WNK3 = target: T21, WNK3 (Homo sapiens, UniProt Q9BYP7); experiment: Off-target kinase profiling (KinaseProfiler); type: biochemical; settings: 10 μM, ATP near Km
T21 construct: purchased Millipore, Inc. (KinaseProfiler service)
Procedure, shortened: as §1

AURKA = target: T22, AURKA (Homo sapiens, UniProt O14965); experiment: Off-target kinase profiling (KinaseProfiler); type: biochemical; settings: 10 μM, ATP near Km
T22 construct: purchased Millipore, Inc. (KinaseProfiler service)
Procedure, shortened: as §1

Mer = target: T23, Mer (Homo sapiens, UniProt Q12866); experiment: Off-target kinase profiling (KinaseProfiler); type: biochemical; settings: 10 μM, ATP near Km
T23 construct: purchased Millipore, Inc. (KinaseProfiler service)
Procedure, shortened: as §1

MKK7beta = target: T24, MKK7beta (Homo sapiens, UniProt O14733); experiment: Off-target kinase profiling (KinaseProfiler); type: biochemical; settings: 10 μM, ATP near Km
T24 construct: purchased Millipore, Inc. (KinaseProfiler service)
Procedure, shortened: as §1

PKCzeta = target: T25, PKCzeta (Homo sapiens, UniProt Q05513); experiment: Off-target kinase profiling (KinaseProfiler); type: biochemical; settings: 10 μM, ATP near Km
T25 construct: purchased Millipore, Inc. (KinaseProfiler service)
Procedure, shortened: as §1

T2 sequence (Q8TDC3 whole entry): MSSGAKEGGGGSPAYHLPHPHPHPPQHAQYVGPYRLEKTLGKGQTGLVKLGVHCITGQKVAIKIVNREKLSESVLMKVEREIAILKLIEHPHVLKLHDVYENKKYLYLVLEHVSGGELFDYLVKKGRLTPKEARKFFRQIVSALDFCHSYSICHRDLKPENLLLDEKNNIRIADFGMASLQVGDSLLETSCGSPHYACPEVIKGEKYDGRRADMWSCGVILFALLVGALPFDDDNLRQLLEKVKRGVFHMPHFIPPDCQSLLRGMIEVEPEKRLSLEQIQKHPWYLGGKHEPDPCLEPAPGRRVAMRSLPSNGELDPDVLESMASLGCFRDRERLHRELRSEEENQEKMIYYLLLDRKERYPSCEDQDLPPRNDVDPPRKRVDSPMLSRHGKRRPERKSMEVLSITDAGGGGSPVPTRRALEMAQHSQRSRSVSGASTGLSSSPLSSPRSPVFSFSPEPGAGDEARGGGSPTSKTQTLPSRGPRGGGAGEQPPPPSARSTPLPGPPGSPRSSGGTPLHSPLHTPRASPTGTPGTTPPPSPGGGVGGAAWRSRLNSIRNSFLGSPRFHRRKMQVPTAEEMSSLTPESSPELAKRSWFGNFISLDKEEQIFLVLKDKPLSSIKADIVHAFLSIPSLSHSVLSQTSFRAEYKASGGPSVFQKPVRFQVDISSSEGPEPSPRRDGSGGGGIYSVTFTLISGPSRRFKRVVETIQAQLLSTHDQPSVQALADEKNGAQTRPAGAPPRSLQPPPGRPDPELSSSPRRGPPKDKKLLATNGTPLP
T25 sequence (Q05513 whole entry): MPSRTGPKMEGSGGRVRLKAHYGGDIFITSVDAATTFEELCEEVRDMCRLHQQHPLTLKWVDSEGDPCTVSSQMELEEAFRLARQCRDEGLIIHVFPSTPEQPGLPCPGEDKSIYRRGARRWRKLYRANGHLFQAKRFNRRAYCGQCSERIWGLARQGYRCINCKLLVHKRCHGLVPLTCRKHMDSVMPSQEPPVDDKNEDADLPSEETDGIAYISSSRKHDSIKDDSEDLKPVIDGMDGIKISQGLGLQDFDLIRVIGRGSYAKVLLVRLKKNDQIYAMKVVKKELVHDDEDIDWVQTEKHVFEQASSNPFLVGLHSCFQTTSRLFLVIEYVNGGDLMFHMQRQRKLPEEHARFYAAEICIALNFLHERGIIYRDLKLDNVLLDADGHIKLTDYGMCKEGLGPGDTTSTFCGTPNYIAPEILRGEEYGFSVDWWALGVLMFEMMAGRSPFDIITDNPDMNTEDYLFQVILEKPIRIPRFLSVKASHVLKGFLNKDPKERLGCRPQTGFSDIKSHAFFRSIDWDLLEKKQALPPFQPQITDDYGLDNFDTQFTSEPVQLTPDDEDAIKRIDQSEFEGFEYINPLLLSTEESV
T7 sequence (Q9NYY3 whole entry): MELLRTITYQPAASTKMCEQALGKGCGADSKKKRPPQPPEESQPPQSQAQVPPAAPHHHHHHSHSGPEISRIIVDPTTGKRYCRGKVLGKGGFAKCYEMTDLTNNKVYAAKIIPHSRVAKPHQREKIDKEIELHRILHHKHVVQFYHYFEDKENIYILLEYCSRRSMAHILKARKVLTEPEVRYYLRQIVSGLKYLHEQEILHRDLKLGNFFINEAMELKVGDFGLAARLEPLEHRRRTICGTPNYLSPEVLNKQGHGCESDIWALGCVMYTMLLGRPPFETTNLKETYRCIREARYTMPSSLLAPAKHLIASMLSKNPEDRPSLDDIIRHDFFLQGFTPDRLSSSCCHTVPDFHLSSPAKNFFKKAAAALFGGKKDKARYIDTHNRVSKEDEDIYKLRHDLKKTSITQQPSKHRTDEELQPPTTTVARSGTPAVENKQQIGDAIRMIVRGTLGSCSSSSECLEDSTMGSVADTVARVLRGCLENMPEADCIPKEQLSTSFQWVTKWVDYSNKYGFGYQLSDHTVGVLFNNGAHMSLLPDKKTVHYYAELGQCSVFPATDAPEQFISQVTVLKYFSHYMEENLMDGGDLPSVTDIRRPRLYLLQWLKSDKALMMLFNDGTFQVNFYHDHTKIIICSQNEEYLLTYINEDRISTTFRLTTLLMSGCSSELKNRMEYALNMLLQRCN
T16 sequence (Q13882 whole entry): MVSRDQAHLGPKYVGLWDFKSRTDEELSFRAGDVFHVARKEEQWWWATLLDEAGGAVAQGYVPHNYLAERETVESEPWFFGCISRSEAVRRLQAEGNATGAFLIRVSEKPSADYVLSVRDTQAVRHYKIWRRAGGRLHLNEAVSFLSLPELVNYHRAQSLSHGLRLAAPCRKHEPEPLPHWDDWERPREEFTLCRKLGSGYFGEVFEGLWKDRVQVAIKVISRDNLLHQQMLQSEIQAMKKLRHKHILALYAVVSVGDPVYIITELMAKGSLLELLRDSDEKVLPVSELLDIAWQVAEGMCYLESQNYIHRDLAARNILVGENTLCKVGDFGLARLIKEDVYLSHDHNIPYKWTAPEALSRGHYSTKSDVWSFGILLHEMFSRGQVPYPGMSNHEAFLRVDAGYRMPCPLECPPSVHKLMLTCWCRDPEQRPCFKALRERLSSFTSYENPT
T14 sequence (Q8WTQ7 whole entry): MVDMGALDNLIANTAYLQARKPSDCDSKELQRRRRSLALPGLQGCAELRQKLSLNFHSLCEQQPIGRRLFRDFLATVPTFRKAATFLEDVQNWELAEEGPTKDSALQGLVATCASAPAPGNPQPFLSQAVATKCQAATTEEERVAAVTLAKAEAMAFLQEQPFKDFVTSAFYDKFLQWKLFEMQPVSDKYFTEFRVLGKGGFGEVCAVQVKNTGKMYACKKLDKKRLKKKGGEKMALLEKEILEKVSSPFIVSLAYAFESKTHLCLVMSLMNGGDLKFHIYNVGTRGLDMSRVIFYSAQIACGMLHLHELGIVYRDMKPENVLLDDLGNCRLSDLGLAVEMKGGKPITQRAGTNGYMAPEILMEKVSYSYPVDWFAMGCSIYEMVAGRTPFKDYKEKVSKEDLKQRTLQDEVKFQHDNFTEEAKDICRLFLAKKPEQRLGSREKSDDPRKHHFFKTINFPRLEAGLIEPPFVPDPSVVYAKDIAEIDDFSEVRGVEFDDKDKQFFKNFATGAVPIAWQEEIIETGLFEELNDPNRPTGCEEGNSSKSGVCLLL
T6 sequence (P54760 16-987): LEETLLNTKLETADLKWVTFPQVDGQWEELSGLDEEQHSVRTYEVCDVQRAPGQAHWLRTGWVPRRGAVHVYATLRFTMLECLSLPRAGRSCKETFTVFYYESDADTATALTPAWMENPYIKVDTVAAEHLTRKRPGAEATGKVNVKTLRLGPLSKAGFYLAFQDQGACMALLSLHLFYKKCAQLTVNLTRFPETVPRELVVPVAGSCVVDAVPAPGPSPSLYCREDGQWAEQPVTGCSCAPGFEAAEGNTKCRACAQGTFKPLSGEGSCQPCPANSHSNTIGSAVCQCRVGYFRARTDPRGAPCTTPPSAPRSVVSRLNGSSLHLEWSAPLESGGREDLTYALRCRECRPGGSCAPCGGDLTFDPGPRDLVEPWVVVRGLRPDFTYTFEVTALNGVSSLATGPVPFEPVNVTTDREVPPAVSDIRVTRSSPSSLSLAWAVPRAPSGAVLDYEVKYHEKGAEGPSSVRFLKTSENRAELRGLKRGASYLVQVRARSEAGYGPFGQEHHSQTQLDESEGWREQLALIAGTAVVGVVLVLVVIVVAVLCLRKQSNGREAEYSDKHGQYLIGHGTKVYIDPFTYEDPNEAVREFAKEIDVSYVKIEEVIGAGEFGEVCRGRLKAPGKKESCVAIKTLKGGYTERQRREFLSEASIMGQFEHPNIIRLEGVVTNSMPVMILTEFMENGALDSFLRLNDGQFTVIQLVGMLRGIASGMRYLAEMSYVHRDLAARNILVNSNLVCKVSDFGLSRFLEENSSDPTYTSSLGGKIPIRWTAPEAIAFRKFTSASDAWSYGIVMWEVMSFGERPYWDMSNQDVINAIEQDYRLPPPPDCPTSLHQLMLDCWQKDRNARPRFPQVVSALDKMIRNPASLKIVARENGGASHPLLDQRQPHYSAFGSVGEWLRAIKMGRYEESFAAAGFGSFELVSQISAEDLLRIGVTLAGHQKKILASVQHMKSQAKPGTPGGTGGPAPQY
T24 sequence (O14733 whole entry): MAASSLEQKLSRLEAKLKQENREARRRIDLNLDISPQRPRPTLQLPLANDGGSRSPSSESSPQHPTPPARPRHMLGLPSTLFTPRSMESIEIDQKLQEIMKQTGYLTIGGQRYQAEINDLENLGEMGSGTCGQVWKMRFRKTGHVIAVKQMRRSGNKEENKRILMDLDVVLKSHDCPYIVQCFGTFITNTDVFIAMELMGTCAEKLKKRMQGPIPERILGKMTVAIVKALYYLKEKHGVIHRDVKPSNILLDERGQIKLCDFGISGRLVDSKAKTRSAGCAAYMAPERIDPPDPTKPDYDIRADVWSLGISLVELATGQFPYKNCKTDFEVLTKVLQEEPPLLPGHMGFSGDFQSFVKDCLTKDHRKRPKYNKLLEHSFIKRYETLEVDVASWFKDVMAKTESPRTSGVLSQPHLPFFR
T11 sequence (Q13177 whole entry): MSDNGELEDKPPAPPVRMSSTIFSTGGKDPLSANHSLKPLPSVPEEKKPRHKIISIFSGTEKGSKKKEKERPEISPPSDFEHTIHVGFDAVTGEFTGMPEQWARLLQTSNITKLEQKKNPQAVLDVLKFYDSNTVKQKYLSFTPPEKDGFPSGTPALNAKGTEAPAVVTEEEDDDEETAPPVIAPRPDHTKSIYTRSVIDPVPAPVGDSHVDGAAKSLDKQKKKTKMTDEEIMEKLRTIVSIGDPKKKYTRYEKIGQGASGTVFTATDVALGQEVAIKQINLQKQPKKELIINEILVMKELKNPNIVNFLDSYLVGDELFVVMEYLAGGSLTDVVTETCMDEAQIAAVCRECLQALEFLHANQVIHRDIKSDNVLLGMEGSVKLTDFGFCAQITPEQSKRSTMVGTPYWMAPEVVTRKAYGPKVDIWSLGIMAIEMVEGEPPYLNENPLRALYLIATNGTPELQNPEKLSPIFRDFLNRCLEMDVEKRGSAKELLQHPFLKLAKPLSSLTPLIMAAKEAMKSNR

IC50 [1]: < 100 nM
Avg POC (BrSK1): 118 POC
Avg POC (p38gamma): 116 POC
Avg POC (ARK5): 103.5 POC
Avg POC (PKAC-alpha): 134 POC
Avg POC (EphB4): 145.5 POC
Avg POC (Plk2): 104.5 POC
Avg POC (KIT): 93.5 POC
Avg POC (SGK2): 147.5 POC
Avg POC (PAK6): 125 POC
Avg POC (PAK2): 121 POC
Avg POC (ErbB4): 118 POC
Avg POC (CDK2/cyclinE): 143 POC
Avg POC (GRK7): 97 POC
Avg POC (PRK2): 142.5 POC
Avg POC (PTK6): 114.5 POC
Avg POC (Plk1): 95 POC
Avg POC (DAPK3): 120 POC
Avg POC (IGF-1R): 81 POC
Avg POC (KDR): 159 POC
Avg POC (WNK3): 122 POC
Avg POC (AURKA): 128 POC
Avg POC (Mer): 116 POC
Avg POC (MKK7beta): 115.5 POC
Avg POC (PKCzeta): 123 POC
SMILES: COCc1ccc2cccc(NC(=O)Nc3c(C)c(-c4cnn(C)c4)nn3-c3ccccc3)c2c1 [Example 16, 1-(1′,4-dimethyl-1-phenyl-1H,1′H-[3,4′-bipyrazol]-5-yl)-3-(7-(methoxymethyl)naphthalen-1-yl)urea]

From patent publication US9546156B2, “N-bicyclic aryl,N'-pyrazolyl urea, thiourea, guanidine cyanoguanidine compounds as TrkA kinase inhibitors” (Array BioPharma Inc., priority 2012, dated 2017)
